The text below walks through data of patent US12492188B2, “1H-benzo[D]imidazole derivatives as TLR9 inhibitors for the treatment of fibrosis” (BRISTOL-MYERS SQUIBB COMPANY, priority 2020, dated 2025).

Where two headings read alike, the source gives them in different places. Some results are limits rather than exact numbers.

What all share (format): cell-based
The target of assay [1] is T1, human TLR9 (Homo sapiens, UniProt Q9NR96).
T1 construct: host or cells: HEK-Blue cells (HEK293-derived reporter line)
T1 sequence (Q9NR96 26-1032): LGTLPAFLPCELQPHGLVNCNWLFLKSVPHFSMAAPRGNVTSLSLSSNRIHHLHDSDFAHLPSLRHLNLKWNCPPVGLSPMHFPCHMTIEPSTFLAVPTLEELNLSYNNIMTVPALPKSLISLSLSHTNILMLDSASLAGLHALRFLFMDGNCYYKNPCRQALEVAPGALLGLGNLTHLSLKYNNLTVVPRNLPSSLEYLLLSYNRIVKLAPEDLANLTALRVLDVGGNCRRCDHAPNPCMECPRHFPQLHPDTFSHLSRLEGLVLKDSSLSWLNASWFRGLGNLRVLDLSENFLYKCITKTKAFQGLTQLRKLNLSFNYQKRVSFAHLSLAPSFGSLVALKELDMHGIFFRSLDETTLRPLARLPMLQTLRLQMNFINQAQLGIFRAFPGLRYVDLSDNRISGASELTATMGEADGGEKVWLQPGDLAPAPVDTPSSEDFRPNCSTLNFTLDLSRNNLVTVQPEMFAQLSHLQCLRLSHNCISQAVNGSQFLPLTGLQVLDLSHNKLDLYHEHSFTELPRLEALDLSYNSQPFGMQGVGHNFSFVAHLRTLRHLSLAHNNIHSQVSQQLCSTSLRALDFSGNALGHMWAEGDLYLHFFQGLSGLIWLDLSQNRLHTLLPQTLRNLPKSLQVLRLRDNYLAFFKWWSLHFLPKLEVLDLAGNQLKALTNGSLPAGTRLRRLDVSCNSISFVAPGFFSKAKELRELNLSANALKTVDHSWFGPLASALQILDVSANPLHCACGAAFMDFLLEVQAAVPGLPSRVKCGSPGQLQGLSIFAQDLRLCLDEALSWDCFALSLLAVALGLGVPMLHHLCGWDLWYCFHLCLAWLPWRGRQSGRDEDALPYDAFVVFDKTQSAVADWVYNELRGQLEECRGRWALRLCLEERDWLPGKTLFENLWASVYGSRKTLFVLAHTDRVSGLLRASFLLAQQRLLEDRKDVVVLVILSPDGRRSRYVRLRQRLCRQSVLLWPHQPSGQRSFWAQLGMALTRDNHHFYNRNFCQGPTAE
Kind of assay: TLR9 inhibition reporter assay (HEK-Blue cells, secreted embryonic alkaline phosphatase reporter). The method, boiled down:
(§1)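 HEK-Blue cells expressing human TLR7, TLR8 or TLR9 with an NF-κB/AP-1-driven SEAP reporter were pretreated with compound (0.05 nM–50 μM final) for 30 min at room temperature. Agonists were gardiquimod 7.5 μM for TLR7, R848 15.9 μM for TLR8 and ODN2006 5 nM for TLR9. SEAP was read after 22 h at 37 °C, and inhibition was calculated relative to agonist-plus-DMSO and known-inhibitor controls.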

Assay [2] addresses T2, human TLR7 (Homo sapiens, UniProt Q9NYK1).
T2 construct: host or cells: HEK-Blue cells (HEK293-derived reporter line)
T2 sequence (Q9NYK1 27-1049): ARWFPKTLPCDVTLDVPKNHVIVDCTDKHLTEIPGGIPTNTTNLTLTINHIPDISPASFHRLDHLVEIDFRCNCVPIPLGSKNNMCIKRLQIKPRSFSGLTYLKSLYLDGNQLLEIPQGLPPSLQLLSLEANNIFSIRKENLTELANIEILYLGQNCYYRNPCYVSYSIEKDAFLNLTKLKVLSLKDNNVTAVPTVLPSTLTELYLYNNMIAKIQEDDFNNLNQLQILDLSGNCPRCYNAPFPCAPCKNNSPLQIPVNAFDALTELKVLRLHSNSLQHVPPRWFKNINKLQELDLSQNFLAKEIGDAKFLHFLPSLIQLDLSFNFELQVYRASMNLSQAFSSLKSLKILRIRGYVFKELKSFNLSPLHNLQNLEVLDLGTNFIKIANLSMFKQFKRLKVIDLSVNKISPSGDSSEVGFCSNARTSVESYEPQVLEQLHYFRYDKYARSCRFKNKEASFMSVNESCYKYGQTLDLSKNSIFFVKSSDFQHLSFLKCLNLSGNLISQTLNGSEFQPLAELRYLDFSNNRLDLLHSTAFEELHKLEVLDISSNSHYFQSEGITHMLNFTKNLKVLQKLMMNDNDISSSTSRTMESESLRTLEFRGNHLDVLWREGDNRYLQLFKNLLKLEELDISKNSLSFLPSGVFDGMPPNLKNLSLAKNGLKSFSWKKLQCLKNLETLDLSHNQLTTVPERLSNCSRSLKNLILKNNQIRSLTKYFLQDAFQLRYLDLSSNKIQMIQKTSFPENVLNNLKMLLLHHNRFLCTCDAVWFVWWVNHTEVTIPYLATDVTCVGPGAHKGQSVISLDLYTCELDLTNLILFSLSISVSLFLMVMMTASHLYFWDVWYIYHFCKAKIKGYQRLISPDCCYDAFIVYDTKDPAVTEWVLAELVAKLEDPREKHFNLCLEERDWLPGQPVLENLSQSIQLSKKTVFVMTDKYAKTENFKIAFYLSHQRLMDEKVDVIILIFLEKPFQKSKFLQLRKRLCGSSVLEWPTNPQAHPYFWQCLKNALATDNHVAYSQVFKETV
The experiment in a line: TLR7 inhibition reporter assay (HEK-Blue cells, secreted embryonic alkaline phosphatase reporter). Particulars: HEK-Blue cells overexpressing human TLR7, stimulated with gardiquimod 7.5 μM; read-out: TLR 7 IC50. The method, boiled down: as §1
A general note: Reporter assays use an easily measured gene product as a stand-in for the process of interest.

For assay [3], the target named is T3, human TLR8 (Homo sapiens, UniProt Q9NR97).
T3 construct: host or cells: HEK-Blue cells (HEK293-derived reporter line)
T3 sequence (Q9NR97 27-1041): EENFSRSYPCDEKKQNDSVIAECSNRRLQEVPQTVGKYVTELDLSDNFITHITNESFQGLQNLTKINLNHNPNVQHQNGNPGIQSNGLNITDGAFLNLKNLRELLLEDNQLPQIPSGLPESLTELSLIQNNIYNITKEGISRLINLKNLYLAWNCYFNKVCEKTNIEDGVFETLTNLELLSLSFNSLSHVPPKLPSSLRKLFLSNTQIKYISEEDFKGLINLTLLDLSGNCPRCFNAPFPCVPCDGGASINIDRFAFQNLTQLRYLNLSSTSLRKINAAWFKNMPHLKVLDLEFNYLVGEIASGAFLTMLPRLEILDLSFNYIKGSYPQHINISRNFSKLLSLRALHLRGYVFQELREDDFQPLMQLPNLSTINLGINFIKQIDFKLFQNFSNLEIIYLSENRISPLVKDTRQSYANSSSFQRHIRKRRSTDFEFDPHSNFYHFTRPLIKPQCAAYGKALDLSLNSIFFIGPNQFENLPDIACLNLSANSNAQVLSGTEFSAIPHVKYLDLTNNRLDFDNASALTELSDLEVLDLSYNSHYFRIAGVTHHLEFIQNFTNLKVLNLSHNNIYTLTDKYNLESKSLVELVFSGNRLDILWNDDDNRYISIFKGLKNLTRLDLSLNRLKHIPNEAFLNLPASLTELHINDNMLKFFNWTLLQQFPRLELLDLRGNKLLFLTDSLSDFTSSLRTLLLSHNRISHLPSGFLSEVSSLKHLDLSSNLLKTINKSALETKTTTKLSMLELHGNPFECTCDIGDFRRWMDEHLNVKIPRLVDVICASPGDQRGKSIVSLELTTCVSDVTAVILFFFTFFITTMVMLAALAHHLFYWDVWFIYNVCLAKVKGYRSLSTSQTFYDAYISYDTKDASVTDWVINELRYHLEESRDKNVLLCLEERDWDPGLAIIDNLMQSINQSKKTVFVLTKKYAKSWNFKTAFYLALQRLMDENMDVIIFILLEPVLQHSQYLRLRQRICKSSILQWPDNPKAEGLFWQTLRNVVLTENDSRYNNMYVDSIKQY
The experiment in a line: TLR8 inhibition reporter assay (HEK-Blue cells, secreted embryonic alkaline phosphatase reporter). Particulars: HEK-Blue cells overexpressing human TLR8, stimulated with R848 15.9 μM; read-out: TLR 8 IC50. The essentials: as §1

Setting [4] is: HEK-Blue cells overexpressing human TLR9, stimulated with ODN2006 5 nM, read-out: TLR 9 IC50.

As usually defined, the IC50 is the midpoint of a concentration-inhibition curve. As to `CC(C)CN1C2CCC1CC(N1CCC(c3cc(F)c4c(c3)nc(-c3ccc(S(C)(=O)=O)cc3)n4C)CC1)C2` (stereo not drawn) [Example 209, 7-fluoro-5-(1-(8-isobutyl-8-azabicyclo[3.2.1]octan-3-yl)piperidin-4-yl)-1-methyl-2-(4-(methylsulfonyl)phenyl)-1H-benzo[d]imidazole], the IC50 in assay [1] came out at 81 nM; in assay [1] (setting [4]), 81 nM; in assay [2], 16700 nM; in assay [3], 16700 nM.

Consider `CC(C)CN1C2CCC1CC(N1CCC(c3cc(F)c4c(c3)nc(-c3ccc(S(C)(=O)=O)cc3)n4C)CC1)C2` (stereo not drawn) [Example 210, 7-fluoro-5-(1-(8-isobutyl-8-azabicyclo[3.2.1]octan-3-yl)piperidin-4-yl)-1-methyl-2-(4-(methylsulfonyl)phenyl)-1H-benzo[d]imidazole], for which the IC50 is 120 nM in assay [1], more than 50000 nM in assay [2] and more than 50000 nM in assay [3].

As to `Cn1c(-c2ccc(S(C)(=O)=O)cc2)nc2cc(C3CCN(C4CC5CCC(C4)N5C4CCOCC4)CC3)cc(F)c21` (stereo not drawn) [Example 211, 7-fluoro-1-methyl-2-(4-(methylsulfonyl)phenyl)-5-(1-(8-(tetrahydro-2H-pyran-4-yl)-8-azabicyclo[3.2.1]octan-3-yl)piperidin-4-yl)-1H-benzo[d]imidazole], the IC50 was 270 nM in assay [1], 165 nM in assay [1] (setting [4]), more than 50000 nM in assay [2] and more than 50000 nM in assay [3].

In the case of `Cn1c(-c2ccc(S(C)(=O)=O)cc2)nc2cc(C3CCN(C4CC5CCC(C4)N5C4CCOCC4)CC3)cc(F)c21` (stereo not drawn) [Example 212, 7-fluoro-1-methyl-2-(4-(methylsulfonyl)phenyl)-5-(1-(8-(tetrahydro-2H-pyran-4-yl)-8-azabicyclo[3.2.1]octan-3-yl)piperidin-4-yl)-1H-benzo[d]imidazole], the IC50 in assay [1] is 460 nM; in assay [1] (setting [4]), 456 nM; in assay [2], more than 50000 nM; in assay [3], more than 50000 nM.

As to `Cn1c(-c2ccc(S(C)(=O)=O)cc2)nc2cc(C3CCN(C4CC5CCC(C4)N5CC4CC4)CC3)cc(F)c21` (stereo not drawn) [Example 217, 5-(1-(8-(cyclopropylmethyl)-8-azabicyclo[3.2.1]octan-3-yl)piperidin-4-yl)-7-fluoro-1-methyl-2-(4-(methylsulfonyl)phenyl)-1H-benzo[d]imidazole], the IC50 in assay [1] is 130 nM; in assay [1] (setting [4]), 125 nM; in assay [2], 12900 nM; in assay [3] it was more than 50000 nM.

Take `Cn1c(-c2ccc(S(C)(=O)=O)cc2)nc2cc(C3CCN(C4CC5CCC(C4)N5CC4CC4)CC3)cc(F)c21` (stereo not drawn) [Example 218, 5-(1-(8-(cyclopropylmethyl)-8-azabicyclo[3.2.1]octan-3-yl)piperidin-4-yl)-7-fluoro-1-methyl-2-(4-(methylsulfonyl)phenyl)-1H-benzo[d]imidazole]: the IC50 was 140 nM in assay [1], 140 nM in assay [1] (setting [4]), 5600 nM in assay [2] and 48700 nM in assay [3].

Consider `CC(C)CN1CCC(N2CCC(c3cc4c(cc3F)nc(-c3ccc(S(C)(=O)=O)cc3)n4C)CC2)CC1` [Example 221, 5-fluoro-6-(1′-isobutyl-[1,4′-bipiperidin]-4-yl)-1-methyl-2-(4-(methylsulfonyl)phenyl)-1H-benzo[d]imidazole], for which the IC50 in assay [1] is 350 nM; in assay [1] (setting [4]), 354 nM; in assay [2], 7800 nM; in assay [3], more than 50000 nM.

Take `Cn1c(-c2ccc(S(C)(=O)=O)cc2)nc2cc(F)c(C3CCN(C4CCN(C5CC5)CC4)CC3)cc21` [Example 222, 6-(1′-cyclopropyl-[1,4′-bipiperidin]-4-yl)-5-fluoro-1-methyl-2-(4-(methylsulfonyl)phenyl)-1H-benzo[d]imidazole]: the IC50 in assay [1] is 130 nM; in assay [1] (setting [4]), 133 nM; in assay [2], 35600 nM; in assay [3], more than 50000 nM.

On to `Cn1c(-c2ccc(S(C)(=O)=O)cc2)nc2cc(F)c(C3CCN(C4CCN(C5CCC5)CC4)CC3)cc21` [Example 223, 6-(1′-cyclobutyl-[1,4′-bipiperidin]-4-yl)-5-fluoro-1-methyl-2-(4-(methylsulfonyl)phenyl)-1H-benzo[d]imidazole], for which the IC50 is 290 nM in assay [1], 290 nM in assay [1] (setting [4]), more than 50000 nM in assay [2] and more than 50000 nM in assay [3].

Turning to `Cn1c(-c2ccc(S(C)(=O)=O)cc2)nc2cc(F)c(C3CCN(C4CCN(CC5CC5)CC4)CC3)cc21` [Example 224, 6-(1′-(cyclopropylmethyl)-[1,4′-bipiperidin]-4-yl)-5-fluoro-1-methyl-2-(4-(methylsulfonyl)phenyl)-1H-benzo[d]imidazole], the IC50 was 190 nM in assay [1], 192 nM in assay [1] (setting [4]), 25700 nM in assay [2] and more than 50000 nM in assay [3].
